Measurements from patent publication US20230416232A1, “PYRIMIDINE COMPOUNDS, COMPOSITIONS, AND MEDICINAL APPLICATIONS THEREOF” (Blueprint Medicines Corporation, priority 2020, published 2023).

What was measured:
Assay type in all cases: cell-based
[1] = biological target: EGFR(D770_N771insSVD) expressing Ba/F3 stable cell line (Homo sapiens, UniProt P00533, DUP768-770, cells depend on it); test: Cellular proliferation (Alamar Blue) assay, EGFR(D770_N771insSVD) Ba/F3; settings: 72 hr, read-out: D770 IC50
Sequence of EGFR(D770_N771insSVD) expressing Ba/F3 stable cell line (P00533 with tags, fused parts or gaps DUP768-770): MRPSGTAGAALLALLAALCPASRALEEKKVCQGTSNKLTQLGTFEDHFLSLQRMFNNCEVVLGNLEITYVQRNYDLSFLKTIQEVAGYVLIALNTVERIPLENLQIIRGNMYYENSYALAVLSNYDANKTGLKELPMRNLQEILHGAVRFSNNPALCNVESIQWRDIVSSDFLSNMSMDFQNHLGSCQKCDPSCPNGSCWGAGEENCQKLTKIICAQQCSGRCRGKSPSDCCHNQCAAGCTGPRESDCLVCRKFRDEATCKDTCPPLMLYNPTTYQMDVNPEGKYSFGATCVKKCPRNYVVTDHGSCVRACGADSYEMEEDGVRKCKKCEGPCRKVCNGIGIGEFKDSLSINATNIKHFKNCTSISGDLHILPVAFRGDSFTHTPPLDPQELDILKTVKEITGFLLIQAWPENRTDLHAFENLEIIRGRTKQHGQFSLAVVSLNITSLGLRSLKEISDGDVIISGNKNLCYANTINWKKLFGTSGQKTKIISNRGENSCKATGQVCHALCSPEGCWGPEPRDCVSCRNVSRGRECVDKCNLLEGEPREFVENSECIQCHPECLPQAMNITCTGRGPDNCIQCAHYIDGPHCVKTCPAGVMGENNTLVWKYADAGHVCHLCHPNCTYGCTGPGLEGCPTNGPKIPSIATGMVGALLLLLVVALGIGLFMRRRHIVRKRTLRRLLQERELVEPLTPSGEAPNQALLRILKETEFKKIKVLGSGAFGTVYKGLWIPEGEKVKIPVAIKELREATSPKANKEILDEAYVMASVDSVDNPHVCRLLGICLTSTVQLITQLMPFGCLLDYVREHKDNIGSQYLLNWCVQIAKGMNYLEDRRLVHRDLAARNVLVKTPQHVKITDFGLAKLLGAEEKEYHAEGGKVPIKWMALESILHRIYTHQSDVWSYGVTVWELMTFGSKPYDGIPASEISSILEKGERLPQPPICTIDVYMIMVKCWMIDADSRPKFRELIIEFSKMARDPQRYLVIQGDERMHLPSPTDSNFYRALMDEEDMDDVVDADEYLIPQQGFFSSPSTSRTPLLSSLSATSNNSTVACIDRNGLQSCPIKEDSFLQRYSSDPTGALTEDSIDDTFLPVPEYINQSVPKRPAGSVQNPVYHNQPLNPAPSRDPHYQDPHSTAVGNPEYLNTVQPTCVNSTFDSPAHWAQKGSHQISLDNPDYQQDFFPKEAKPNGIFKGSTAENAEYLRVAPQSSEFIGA
Summary of the method: (§1)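 Ba/F3 cells (15,000/well, RPMI + 10% FBS) or A431 cells (5000/well, DMEM + 10% FBS) were seeded for 16-18 h at 37 °C, then treated 72 h with compound at a final 10-0.0005 μM (3-fold dilutions). Alamar Blue was added for 3 h before read-out.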

[2] = biological target: EGFR (A767_dupASV) expressing Ba/F3 stable cell line (Homo sapiens, UniProt P00533, DUP767-769, cells depend on it); test: Cellular proliferation (Alamar Blue) assay, EGFR (A767_dupASV) Ba/F3; settings: 72 hr, read-out: A767 IC50
Sequence of EGFR (A767_dupASV) expressing Ba/F3 stable cell line (P00533 with tags, fused parts or gaps DUP767-769): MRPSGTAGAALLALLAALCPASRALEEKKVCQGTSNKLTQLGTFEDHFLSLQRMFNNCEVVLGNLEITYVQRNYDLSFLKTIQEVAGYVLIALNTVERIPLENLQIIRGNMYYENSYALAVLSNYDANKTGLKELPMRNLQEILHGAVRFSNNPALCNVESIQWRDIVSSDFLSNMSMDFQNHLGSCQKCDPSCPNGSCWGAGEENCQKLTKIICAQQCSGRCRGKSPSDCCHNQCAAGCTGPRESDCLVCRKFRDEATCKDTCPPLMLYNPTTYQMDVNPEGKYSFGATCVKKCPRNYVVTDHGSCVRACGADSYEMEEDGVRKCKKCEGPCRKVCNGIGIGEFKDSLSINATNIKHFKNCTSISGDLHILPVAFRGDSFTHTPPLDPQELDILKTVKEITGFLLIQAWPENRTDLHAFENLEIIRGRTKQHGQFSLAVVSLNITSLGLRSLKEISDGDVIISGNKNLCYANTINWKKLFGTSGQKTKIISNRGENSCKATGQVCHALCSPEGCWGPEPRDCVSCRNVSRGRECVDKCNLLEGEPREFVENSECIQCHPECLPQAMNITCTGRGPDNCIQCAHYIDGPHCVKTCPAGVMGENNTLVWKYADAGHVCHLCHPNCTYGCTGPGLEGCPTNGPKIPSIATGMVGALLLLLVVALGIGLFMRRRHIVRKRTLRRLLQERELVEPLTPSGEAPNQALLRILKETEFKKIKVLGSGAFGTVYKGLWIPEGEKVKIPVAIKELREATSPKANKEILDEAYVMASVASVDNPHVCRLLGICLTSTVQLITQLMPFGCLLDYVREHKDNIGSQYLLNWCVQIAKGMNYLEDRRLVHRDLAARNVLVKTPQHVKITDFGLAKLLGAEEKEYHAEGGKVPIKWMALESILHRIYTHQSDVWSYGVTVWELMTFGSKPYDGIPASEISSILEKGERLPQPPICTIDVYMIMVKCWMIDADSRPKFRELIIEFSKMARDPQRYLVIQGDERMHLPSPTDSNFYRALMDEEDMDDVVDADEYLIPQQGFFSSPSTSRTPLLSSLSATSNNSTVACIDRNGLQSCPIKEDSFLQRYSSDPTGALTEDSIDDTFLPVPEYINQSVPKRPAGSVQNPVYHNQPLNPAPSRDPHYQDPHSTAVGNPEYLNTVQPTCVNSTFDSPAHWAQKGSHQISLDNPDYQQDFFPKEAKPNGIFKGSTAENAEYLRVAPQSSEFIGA
Summary of the method: as §1

[3] = system: A431 cells; test: Cellular proliferation (Alamar Blue) assay, A431 cells; settings: Homo sapiens, A-431, 72 h, A431 cells; 72 hr; Alamar Blue; read-out: A431 IC50
Summary of the method: as §1

[4] = biological target: HER2 (A775_G776insYVMA) expressing Ba/F3 stable cell line (Homo sapiens, UniProt P04626, DUP772-775, cells depend on it); test: Cellular proliferation (Alamar Blue) assay, HER2 (A775_G776insYVMA) Ba/F3; settings: HER2 (A775_G776insYVMA) Ba/F3 cells; 72 hr; Alamar Blue; read-out: YVMA IC50
Sequence of HER2 (A775_G776insYVMA) expressing Ba/F3 stable cell line (P04626 with tags, fused parts or gaps DUP772-775): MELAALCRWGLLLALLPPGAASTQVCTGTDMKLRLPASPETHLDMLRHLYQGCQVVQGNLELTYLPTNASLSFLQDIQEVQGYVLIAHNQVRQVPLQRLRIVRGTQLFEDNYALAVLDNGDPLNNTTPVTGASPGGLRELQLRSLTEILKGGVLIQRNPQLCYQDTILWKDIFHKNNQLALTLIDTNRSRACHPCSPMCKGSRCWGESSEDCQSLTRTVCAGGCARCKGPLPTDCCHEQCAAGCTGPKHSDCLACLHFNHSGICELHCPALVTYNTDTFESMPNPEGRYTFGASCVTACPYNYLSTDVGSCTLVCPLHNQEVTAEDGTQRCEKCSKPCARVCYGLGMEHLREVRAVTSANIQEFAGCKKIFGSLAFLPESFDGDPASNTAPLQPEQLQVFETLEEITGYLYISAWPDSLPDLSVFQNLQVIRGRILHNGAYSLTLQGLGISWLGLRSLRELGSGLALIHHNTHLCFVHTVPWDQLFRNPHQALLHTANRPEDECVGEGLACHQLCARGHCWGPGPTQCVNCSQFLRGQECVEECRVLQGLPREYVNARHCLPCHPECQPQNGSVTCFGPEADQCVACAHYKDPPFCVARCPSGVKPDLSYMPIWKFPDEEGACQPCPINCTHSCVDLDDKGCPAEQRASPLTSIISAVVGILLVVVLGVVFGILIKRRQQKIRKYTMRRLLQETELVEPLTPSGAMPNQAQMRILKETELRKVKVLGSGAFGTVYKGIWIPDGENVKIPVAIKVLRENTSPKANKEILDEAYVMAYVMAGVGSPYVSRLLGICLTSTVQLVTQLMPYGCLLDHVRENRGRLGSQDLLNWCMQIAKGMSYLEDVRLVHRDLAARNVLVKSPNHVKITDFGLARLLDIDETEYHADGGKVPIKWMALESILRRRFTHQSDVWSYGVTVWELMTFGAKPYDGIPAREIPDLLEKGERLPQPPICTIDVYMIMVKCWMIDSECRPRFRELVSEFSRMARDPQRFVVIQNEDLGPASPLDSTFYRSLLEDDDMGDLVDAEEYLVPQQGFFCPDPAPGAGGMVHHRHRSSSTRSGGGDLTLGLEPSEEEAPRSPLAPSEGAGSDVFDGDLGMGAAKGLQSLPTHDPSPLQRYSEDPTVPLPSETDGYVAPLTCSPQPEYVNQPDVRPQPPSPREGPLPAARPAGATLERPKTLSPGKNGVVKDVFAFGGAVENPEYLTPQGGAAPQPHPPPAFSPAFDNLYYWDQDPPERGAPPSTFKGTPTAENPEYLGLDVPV
Procedure: Cell line details: • 1. EGFR(D770_N771insSVD) expressing Ba/F3 stable cell line • 2. EGFR (A767_dupASV) expressing Ba/F3 stable cell line • 3. A431 cells • 4. EGFR (H773insNPH) expressing Ba/F3 stable cell line • 5. HER2 (A775_G776insYVMA) expressing Ba/F3 stable cell line
• 1. Seed cells at 5000 for A431 and 15,000 cells for Ba/F3 in 100 μL/well in complete media (for A431: DMEM with 10% FBS and for Ba/F3 cells: RPMI with 10% FBS) in 96-well tissue culture plate. Leave outer wells without cells for background measurements. Incubate at 37 degree Celsius in 5% CO2 humidified incubator for 16-18 hours. • 2. Add 0.025 ml of 5X concentration compound dilution or DMSO control. Final compound concentration range is 10-0.0005 μM prepared in 3-fold serial dilutions. Incubate for 72 hr at 37 degree Celsius in 5% CO2 humidified incubator. • 3. Add 0.0125 ml Alamar Blue™ reagent to each well with multi-channel pipette and tap gently on each side of the plate to mix. Incubate for 3 hours at 37 degree Celsius in 5% CO2 humidified incubator. • 4. […] Data analysis was performed using XLfit 5.5.0.5.

| Compound | GI50 [1] | GI50 [2] | IC50 [3] | GI50 [4] |
| --- | --- | --- | --- | --- |
| C=CC(=O)Nc1cc(Br)cc(Nc2nc(Nc3cnn(C)c3)ncc2-c2cc(F)cc(Cl)c2)c1 [Compound 173, N-(3-bromo-5-((5-(3-chloro-5-fluorophenyl)-2-((1-methyl-1H-pyrazol-4-yl)amino)pyrimidin-4-yl)amino)phenyl)acrylamide] | 101 nM | 311 nM | 776 nM | 1520 nM |
| C=CC(=O)Nc1ccc(F)c(Nc2nc(Nc3cnn(C)c3)ncc2-c2cc(F)cc(OC(F)F)c2)c1 [Compound 168, N-(3-((5-(3-(difluoromethoxy)-5-fluorophenyl)-2-((1-methyl-1H-pyrazol-4-yl)amino)pyrimidin-4-yl)amino)-4-fluorophenyl)acrylamide] | 262 nM | 132 nM | 67 nM | 574 nM |
| C=CC(=O)Nc1cccc(Nc2nc(Nc3cnn(C)c3)ncc2-c2cc(F)cc(OC)c2)c1 [Compound 127, N-(3-((5-(3-fluoro-5-methoxyphenyl)-2-((1-methyl-1H-pyrazol-4-yl)amino)pyrimidin-4-yl)amino)phenyl)acrylamide] | 89 nM | 312 nM | 123 nM | 167 nM |
| C=CC(=O)Nc1ccc(F)c(Nc2nc(Nc3cnn(C)c3)ncc2-c2cc(F)ccc2OC)c1 [Compound 9, N-(4-fluoro-3-((5-(5-fluoro-2-methoxyphenyl)-2-((1-methyl-1H-pyrazol-4-yl)amino)pyrimidin-4-yl)amino)phenyl)acrylamide] | 930 nM | 721 nM | > 10000 nM | 838 nM |
| C=CC(=O)Nc1ccc(F)c(Nc2nc(Nc3cnn(C)c3)ncc2-c2ccc(N3CCCCCC3)c(F)c2)c1 [Compound 85, N-(3-((5-(4-(azepan-1-yl)-3-fluorophenyl)-2-((1-methyl-1H-pyrazol-4-yl)amino)pyrimidin-4-yl)amino)-4-fluorophenyl)acrylamide] | 314 nM | 268 nM | 2820 nM | 884 nM |
| C=CC(=O)Nc1ccc(F)c(Nc2nc(Nc3cnn(C)c3)ncc2-c2cc(C(F)F)cc(C(F)F)c2)c1 [Compound 155, N-(3-((5-(3,5-bis(difluoromethyl)phenyl)-2-((1-methyl-1H-pyrazol-4-yl)amino)pyrimidin-4-yl)amino)-4-fluorophenyl)acrylamide] | 107 nM | 133 nM | 338 nM | 1670 nM |
| C=CC(=O)Nc1ccc(F)c(Nc2nc(Nc3cnn(CCN(C)C)c3)ncc2-c2ccc(N3CCCCC3)c(F)c2)c1 [Compound 82, N-(3-((2-((1-(2-(dimethylamino)ethyl)-1H-pyrazol-4-yl)amino)-5-(3-fluoro-4-(piperidin-1-yl)phenyl)pyrimidin-4-yl)amino)-4-fluorophenyl)acrylamide] | 313 nM | 239 nM | 397 nM | 149 nM |
| C=CC(=O)Nc1ccc(F)c(Nc2nc(Nc3cnn(CCOC)c3)ncc2-c2ccc(F)c(Cl)c2)c1 [Compound 100, N-(3-((5-(3-chloro-4-fluorophenyl)-2-((1-(2-methoxyethyl)-1H-pyrazol-4-yl)amino)pyrimidin-4-yl)amino)-4-fluorophenyl)acrylamide] | 274 nM | 301 nM | 1200 nM | 860 nM |
| C=CC(=O)Nc1ccc(F)c(Nc2nc(Nc3cnn(C)c3)ncc2-c2cc(C(F)(F)F)ccc2F)c1 [Compound 24, N-(4-fluoro-3-((5-(2-fluoro-5-(trifluoromethyl)phenyl)-2-((1-methyl-1H-pyrazol-4-yl)amino)pyrimidin-4-yl)amino)phenyl)acrylamide] | 300 nM | 321 nM | 9420 nM | 588 nM |

These reach a lower GI50 [1]. Values come first.

| GI50 [1] | GI50 [2] | IC50 [3] | GI50 [4] | Compound |
| --- | --- | --- | --- | --- |
| 53 nM | 97 nM | 534 nM | 192 nM | C=CC(=O)Nc1ccc(F)c(Nc2nc(Nc3cnn(C)c3)ncc2-c2cc(F)cc(Br)c2)c1 [Compound 109, N-(3-((5-(3-bromo-5-fluorophenyl)-2-((1-methyl-1H-pyrazol-4-yl)amino)pyrimidin-4-yl)amino)-4-fluorophenyl)acrylamide] |
| 11 nM | 15 nM | 10 nM | 40 nM | C=CC(=O)Nc1ccc(F)c(Nc2nc(Nc3cnn(C)c3)ncc2-c2cc(F)c(Cl)c(F)c2)c1 [Compound 158, N-(3-((5-(4-chloro-3,5-difluorophenyl)-2-((1-methyl-1H-pyrazol-4-yl)amino)pyrimidin-4-yl)amino)-4-fluorophenyl)acrylamide] |
| 34 nM | 81 nM | 1760 nM | 154 nM | C=CC(=O)Nc1cccc(Nc2nc(Nc3cnn(C)c3)ncc2-c2cc(F)c(Br)c(Cl)c2)c1 [Compound 154, N-(3-((5-(4-bromo-3-chloro-5-fluorophenyl)-2-((1-methyl-1H-pyrazol-4-yl)amino)pyrimidin-4-yl)amino)phenyl)acrylamide] |
| 68 nM | 63 nM | 261 nM | 163 nM | C=CC(=O)Nc1ccc(F)c(Nc2nc(Nc3cnn(C)c3)ncc2-c2cc(F)c(F)c(OC(F)F)c2)c1 [Compound 160, N-(3-((5-(3-(difluoromethoxy)-4,5-difluorophenyl)-2-((1-methyl-1H-pyrazol-4-yl)amino)pyrimidin-4-yl)amino)-4-fluorophenyl)acrylamide] |
| 8 nM | 7 nM | 20 nM | 21 nM | C=CC(=O)Nc1ccc(F)c(Nc2nc(Nc3cnn(C)c3)ncc2-c2cnc(F)c(F)c2)c1 [Compound 29, N-(3-((5-(5,6-difluoropyridin-3-yl)-2-((1-methyl-1H-pyrazol-4-yl)amino)pyrimidin-4-yl)amino)-4-fluorophenyl)acrylamide] |
| 22 nM | 18 nM | 103 nM | 157 nM | C=CC(=O)Nc1cc(F)cc(Nc2nc(Nc3cnn(C)c3)ncc2-c2cc(F)c(C(F)(F)F)c(F)c2)c1 [Compound 164, N-(3-((5-(3,5-difluoro-4-(trifluoromethyl)phenyl)-2-((1-methyl-1H-pyrazol-4-yl)amino)pyrimidin-4-yl)amino)-5-fluorophenyl)acrylamide] |
| 35 nM | 46 nM | 33 nM | 173 nM | C=CC(=O)Nc1ccc(F)c(Nc2nc(Nc3cnn(C4CCOC4)c3)ncc2-c2ccc(Br)c(F)c2)c1 (stereo not drawn) [Compound 93, N-(3-((5-(4-bromo-3-fluorophenyl)-2-((1-(tetrahydrofuran-3-yl)-1H-pyrazol-4-yl)amino)pyrimidin-4-yl)amino)-4-fluorophenyl)acrylamide] |
| 16 nM | 35 nM | 23 nM | 151 nM | [2H]c1c(F)cc(-c2cnc(Nc3cnn(C)c3)nc2Nc2cc(NC(=O)C=C)ccc2F)cc1F [Compound 157, N-[3-({5-[3,5-difluoro(4-^2H)phenyl]-2-[(1-methyl-1H-pyrazol-4-yl)amino]pyrimidin-4-yl}amino)-4-fluorophenyl] prop-2-enamide] |
| 40 nM | 50 nM | 71 nM | 66 nM | C=CC(=O)Nc1ccc(F)c(Nc2nc(Nc3cnn(C)c3)ncc2-c2cc(F)c(Br)c(Cl)c2)c1 [Compound 123, N-(3-((5-(4-bromo-3-chloro-5-fluorophenyl)-2-((1-methyl-1H-pyrazol-4-yl)amino)pyrimidin-4-yl)amino)-4-fluorophenyl)acrylamide] |
